Assay results reported in patent US10131652B2, “Pyrimidinyloxy benzene derivatives as herbicides” (E. I. DU PONT DE NEMOURS AND COMPANY, priority 2014, dated 2018).

Assays:
Assay type in all cases: in vivo
[1] = system: blackgrass (Alopecurus myosuroides); test: Test B postemergence plant response
Summary of the method: (§1)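 Seedlings in a loam soil and sand mix received a postemergence application of the formulated chemicals at the one- to two-leaf stage (2–10 cm tall). They were kept in a greenhouse for roughly 10 days, then scored for injury relative to untreated plants, 0 meaning no effect and 100 complete control.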

[2] = system: galium (catchweed bedstraw, Galium aparine); test: Test B postemergence plant response
Summary of the method: as §1

[3] = system: ragweed (common ragweed, Ambrosia elatior); test: Test B pre-/postemergence plant response
Summary of the method: (§2)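 Ratings reflect visual injury versus untreated controls, from 0 for no effect to 100 for complete control, assessed roughly 10 days after treatment. Formulation: non-phytotoxic solvent mix with surfactant; pre- and postemergence sprays on plants grown in loam soil and sand.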

[4] = system: giant foxtail (Setaria faberii); test: Test B pre-/postemergence plant response
Summary of the method: as §2

[5] = system: barnyardgrass (Echinochloa crus-galli); test: Test B pre-/postemergence plant response
Summary of the method: as §2

[6] = system: Italian ryegrass (Lolium multiflorum); test: Test B pre-/postemergence plant response
Summary of the method: as §2

corn (Zea mays) = test: Test B pre-/postemergence plant response
Summary of the method: as §2

kochia (Kochia scoparia) [7] = test: Test B pre-/postemergence plant response
Summary of the method: as §2

[8] = system: pigweed (Amaranthus retroflexus); test: Test B pre-/postemergence plant response
Summary of the method: as §2

[9] = system: wheat (Triticum aestivum); test: Test B pre-/postemergence plant response
Summary of the method: as §2

[10] = system: barnyardgrass (Echinochloa crus-galli); test: Test C flooded paddy test plant response; details: Flood, 250 g ai/ha; scale of 0 to 100 where 0 is no effect and 100 is complete control; 13 to 15 days
Summary of the method: (§3)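 Flooded-pot format, 3 cm water over soil maintained for the test duration; test compounds dispensed into the water at the 2-leaf stage. Greenhouse holding 13 to 15 days. Plants evaluated visually relative to untreated controls, 0 meaning no effect and 100 complete control.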

rice (Oryza sativa) = test: Test C flooded paddy test plant response; details: Flood, 250 g ai/ha; scale of 0 to 100 where 0 is no effect and 100 is complete control; 13 to 15 days
Summary of the method: as §3

[11] = system: ducksalad (Heteranthera limosa); test: Test C flooded paddy test plant response; details: Flood, 250 g ai/ha; scale of 0 to 100 where 0 is no effect and 100 is complete control; 13 to 15 days
Summary of the method: as §3

[12] = system: small-flower umbrella sedge (Cyperus difformis); test: Test C flooded paddy test plant response; details: Flood, 250 g ai/ha; scale of 0 to 100 where 0 is no effect and 100 is complete control; 13 to 15 days
Summary of the method: as §3

[13] = system: chickweed (common chickweed, Stellaria media); test: Test D postemergence plant response; details: for Chickweed plant response rating: scale 0 to 100 (0 no effect, 100 complete control); for Plant response rating, Chickweed: scale 0 to 100, 0 no effect, 100 complete control
Summary of the method: (§4)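 Postemergence spray on plants 2–18 cm tall (1- to 4-leaf stage), grown in pots of peat/vermiculite medium. Plants were kept in a greenhouse for 13–15 days, then visually rated against untreated controls on a 0 (no effect) to 100 (complete control) scale.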

wild oat (Avena fatua) = test: Test D postemergence plant response; details: for Oat, Wild plant response rating: scale 0 to 100 (0 no effect, 100 complete control); for Plant response rating, Oat, Wild: scale 0 to 100, 0 no effect, 100 complete control
Summary of the method: as §4

kochia (Kochia scoparia) [14] = test: Test D postemergence plant response; details: for Kochia plant response rating: scale 0 to 100 (0 no effect, 100 complete control); for Plant response rating, Kochia: scale 0 to 100, 0 no effect, 100 complete control
Summary of the method: as §4

[15] = 31 g ai/ha, Postemergence, 0 to 100 scale, 0 no effect, 100 complete control
[16] = 125 g ai/ha, postemergence, 0 to 100 scale, 0 no effect, 100 complete control
[17] = 31 g ai/ha, Preemergence, 0 to 100 scale where 0 is no effect and 100 is complete control
[18] = Preemergence, 125 g ai/ha, 0 to 100 scale where 0 is no effect and 100 is complete control
[19] = Postemergence, 500 g ai/ha, 0 to 100 scale (0 no effect, 100 complete control)
[20] = Preemergence, 125 g ai/ha, 0 to 100 scale (0 no effect, 100 complete control)
[21] = Preemergence, 500 g ai/ha, 0 to 100 scale where 0 is no effect and 100 is complete control

Fc1ccc(Oc2ncc(Cl)cn2)c(-c2cc(C(F)F)on2)c1F [Compound 113]
10: Plant response rating, Ryegrass, Italian [6, 17] | Plant response rating, Corn (corn (Zea mays); [15]) | Plant response rating, Wheat [9, 16] | Oat, Wild plant response rating (wild oat (Avena fatua); 16 g ai/ha) | Plant response rating, Oat, Wild (wild oat (Avena fatua); 62 g ai/ha)
95: Ducksalad plant response rating [11] | Sedge, Umbrella plant response rating [12] | Plant response rating, Chickweed ([13]; 125 g ai/ha)
0: Plant response rating, Wheat [9, 15] | Barnyardgrass plant response rating [10]
50: Plant response rating, Ragweed [3, 15]
30: Plant response rating, Ragweed [3, 17] | Plant response rating, Corn (corn (Zea mays); [16])
85: Chickweed plant response rating ([13]; 31 g ai/ha)
100: Plant response rating, Galium [2, 16] | Plant response rating, Foxtail, Giant [4, 18] | Plant response rating, Barnyardgrass [5, 18] | Plant response rating, Kochia (kochia (Kochia scoparia) [7]; [15]) | Plant response rating, Kochia (kochia (Kochia scoparia) [7]; [17]) | Plant response rating, Kochia (kochia (Kochia scoparia) [7]; [16]) | Plant response rating, Kochia (kochia (Kochia scoparia) [7]; [18]) | Plant response rating, Pigweed [8, 15] | Plant response rating, Pigweed [8, 17] | Plant response rating, Pigweed [8, 16] | Kochia plant response rating (kochia (Kochia scoparia) [14]; 31 g ai/ha) | Plant response rating, Kochia (kochia (Kochia scoparia) [14]; 62 g ai/ha) | Plant response rating, Kochia (kochia (Kochia scoparia) [14]; 125 g ai/ha)
90: Plant response rating, Blackgrass [1, 16] | Plant response rating, Galium [2, 15] | Plant response rating, Foxtail, Giant [4, 17] | Plant response rating, Foxtail, Giant [4, 16] | Plant response rating, Barnyardgrass [5, 16] | Plant response rating, Chickweed ([13]; 62 g ai/ha) | Kochia plant response rating (kochia (Kochia scoparia) [14]; 16 g ai/ha)
60: Plant response rating, Blackgrass [1, 15] | Plant response rating, Foxtail, Giant [4, 15] | Plant response rating, Barnyardgrass [5, 15]
70: Plant response rating, Barnyardgrass [5, 17] | Plant response rating, Ryegrass, Italian [6, 16] | Chickweed plant response rating ([13]; 16 g ai/ha)
80: Plant response rating, Ragweed [3, 16]
20: Plant response rating, Ryegrass, Italian [6, 15]
25: Plant response rating, Oat, Wild (wild oat (Avena fatua); 125 g ai/ha)
15: Rice plant response rating (rice (Oryza sativa)) | Oat, Wild plant response rating (wild oat (Avena fatua); 31 g ai/ha)

FC(F)(F)c1cc(-c2c(Cl)cccc2Oc2ncc(Cl)cn2)no1 [Compound 169]
100: Plant response rating, Galium [2, 16] | Plant response rating, Galium [2, 19] | Plant response rating, Pigweed [8, 16] | Plant response rating, Pigweed [8, 19] | Pigweed plant response rating [8, 20] | Plant response rating, Pigweed [8, 21]
5: Chickweed plant response rating ([13]; 16 g ai/ha) | Oat, Wild plant response rating (wild oat (Avena fatua); 31 g ai/ha) | Plant response rating, Oat, Wild (wild oat (Avena fatua); 62 g ai/ha)
90: Plant response rating, Blackgrass [1, 19] | Plant response rating, Foxtail, Giant [4, 21] | Plant response rating, Kochia (kochia (Kochia scoparia) [7]; [16]) | Plant response rating, Kochia (kochia (Kochia scoparia) [7]; [19]) | Plant response rating, Kochia (kochia (Kochia scoparia) [7]; [21]) | Plant response rating, Kochia (kochia (Kochia scoparia) [14]; 62 g ai/ha)
30: Plant response rating, Ragweed [3, 19] | Plant response rating, Foxtail, Giant [4, 16] | Plant response rating, Barnyardgrass [5, 19] | Plant response rating, Barnyardgrass [5, 21]
50: Plant response rating, Blackgrass [1, 16] | Foxtail, Giant plant response rating [4, 20] | Plant response rating, Ryegrass, Italian [6, 19]
80: Plant response rating, Chickweed ([13]; 125 g ai/ha)
60: Plant response rating, Foxtail, Giant [4, 19] | Kochia plant response rating (kochia (Kochia scoparia) [14]; 31 g ai/ha)
95: Plant response rating, Kochia (kochia (Kochia scoparia) [14]; 125 g ai/ha)
40: Chickweed plant response rating ([13]; 31 g ai/ha)
70: Kochia plant response rating (kochia (Kochia scoparia) [7]; [20]) | Plant response rating, Chickweed ([13]; 62 g ai/ha)
0: Ryegrass, Italian plant response rating [6, 20] | Plant response rating, Wheat [9, 16] | Plant response rating, Wheat [9, 19] | Barnyardgrass plant response rating [10] | Rice plant response rating (rice (Oryza sativa)) | Ducksalad plant response rating [11] | Sedge, Umbrella plant response rating [12]
10: Ragweed plant response rating [3, 20] | Plant response rating, Barnyardgrass [5, 16] | Plant response rating, Corn (corn (Zea mays); [16]) | Plant response rating, Oat, Wild (wild oat (Avena fatua); 125 g ai/ha)
20: Plant response rating, Ragweed [3, 16] | Plant response rating, Ragweed [3, 21] | Barnyardgrass plant response rating [5, 20] | Plant response rating, Ryegrass, Italian [6, 16] | Plant response rating, Ryegrass, Italian [6, 21] | Plant response rating, Corn (corn (Zea mays); [19])
